From PubChem BioAssay (NCI) come the findings set out here.

“And” between values parts separate entries of the source, which are not always exact repeats. Equal entries are not always repeated.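 Grown in 96-well plates, cells were treated for 48 hours with each compound at five concentrations. Insufficient inhibition: endpoint recorded as highest concentration tested. GI50: concentration for 50% inhibition of growth. TGI is the concentration that stops growth completely.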

Test systems include DLD-1 colon; DMS 273 small cell lung; HOP-18 NSCLC; KM20L2 colon; M19-MEL melanoma; RXF-631 renal; SNB-78 CNS; XF 498 CNS; P388 leukemia; P388/ADR leukemia; SN12K1 renal.
What all share (assay): NCI tumour cell line growth inhibition, 48 h

Take `Cc1ccc(Oc2ccc(C)cc2[N+](=O)[O-])cc1`: the TGI with DLD-1 colon, with DMS 273 small cell lung, in the assay with HOP-18 NSCLC, in the assay with KM20L2 colon, in the assay on M19-MEL melanoma and with RXF-631 renal was over 100 µM in each case. For the same compound, the TGI in the assay with SNB-78 CNS was 95 µM; with XF 498 CNS it was 64.5 µM.
Take `O=S(=O)(Sc1ccc(Cl)cc1)c1ccc(Cl)cc1`: the TGI turned out to be 31.6 µM in the assay with DLD-1 colon; 29.6 µM in the assay on DMS 273 small cell lung; 34.1 µM in the assay on KM20L2 colon; 35.6 µM in the assay on M19-MEL melanoma; 45.9 µM in the assay with SNB-78 CNS; 53.4 µM with XF 498 CNS.
With `CC(=O)C(O)N1C(=O)C=CC1=O` (stereo unspecified), the GI50 was 9.71 µM in the assay on DLD-1 colon; 18 µM with DMS 273 small cell lung; 17.2 µM in the assay with HOP-18 NSCLC; 17.9 µM and 1.9 µM in the assay on KM20L2 colon; 16.4 µM with M19-MEL melanoma; 19.9 µM in the assay with SNB-78 CNS. Moreover, the TGI was 23.6 µM and 3.97 µM in the assay on DLD-1 colon; 32.2 µM and 28.1 µM in the assay on DMS 273 small cell lung; 31.3 µM and 40.5 µM in the assay with HOP-18 NSCLC; 32.8 µM and 3.51 µM in the assay with KM20L2 colon; 30.4 µM and 17.6 µM with M19-MEL melanoma; 33.9 µM with RXF-631 renal. Further, the TGI with SNB-78 CNS was 37 µM and 54.9 µM; with XF 498 CNS, 31.5 µM.
In the case of `NC(=O)NN=C(CS)CS`, the TGI is over 65.5 µM with DLD-1 colon; 45.1 µM with DMS 273 small cell lung; 66.4 µM in the assay on HOP-18 NSCLC; 36.4 µM in the assay on KM20L2 colon; 37.1 µM in the assay with M19-MEL melanoma; 47.4 µM with P388 leukemia. The TGI is over 100 µM in the assay on P388/ADR leukemia, 41.6 µM in the assay on SN12K1 renal and over 100 µM with SNB-78 CNS.
For `CCCCCCCSc1nc2c(C(=O)OCC)ncn2c2ccccc12`, the TGI in the assay on DMS 273 small cell lung, in the assay on KM20L2 colon, in the assay on M19-MEL melanoma and in the assay with XF 498 CNS was over 100 µM throughout.
